Experimental data published in patent US11518761B2, “CDPK1 inhibitors, compositions, and methods related thereto” (Vyera Pharmaceuticals, LLC, priority 2017, dated 2022).

Molecular target: T. gondii CDPK1 (tgCDPK1) (Toxoplasma gondii, UniProt Q9BJF5)
Experiment: biochemical
Conditions: at least three independent replicates
Procedure: Certain of the compounds prepared as described above were assayed to determine their IC50 for inhibition of T. gondii CDPK1 (tgCDPK1). At least three independent replicates of the assay were conducted for each compound tested.

T. gondii CDPK1 (tgCDPK1), sequence (Q9BJF5 1-507): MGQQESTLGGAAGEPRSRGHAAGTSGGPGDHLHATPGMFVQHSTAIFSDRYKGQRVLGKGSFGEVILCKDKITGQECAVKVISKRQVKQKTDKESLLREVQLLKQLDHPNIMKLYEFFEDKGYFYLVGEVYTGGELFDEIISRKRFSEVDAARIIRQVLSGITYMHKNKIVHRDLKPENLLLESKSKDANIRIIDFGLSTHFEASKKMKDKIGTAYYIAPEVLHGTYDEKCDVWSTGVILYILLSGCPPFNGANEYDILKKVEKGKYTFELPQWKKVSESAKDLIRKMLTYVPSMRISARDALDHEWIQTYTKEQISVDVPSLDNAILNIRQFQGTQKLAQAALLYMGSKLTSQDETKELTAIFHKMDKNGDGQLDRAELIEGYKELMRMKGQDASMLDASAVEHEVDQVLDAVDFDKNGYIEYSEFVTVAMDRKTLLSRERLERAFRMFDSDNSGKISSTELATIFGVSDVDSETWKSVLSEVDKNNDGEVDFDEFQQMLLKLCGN

Row | Compound | IC50
1 | Nc1ncnc2c1c(Oc1cc(C(F)(F)F)ccn1)nn2C1CC1 [Compound 77, 1-cyclopropyl-3-((4-(trifluoromethyl)pyridin-2-yl)oxy)-1H-pyrazolo[3,4-d]pyrimidin-4-amine] | 16.5 nM
2 | Nc1ncnc2c1c(Cc1cccc(Cl)c1)nn2[C@H]1C[C@@H](O)C1 [Compound 130, (cis)-3-(4-amino-3-(3-chlorobenzyl)-1H-pyrazolo[3,4-d]pyrimidin-1-yl)cyclobutan-1-ol] | 15.4 nM
3 | Nc1ncnc2c1c(Cc1cccc(F)c1)nn2[C@H]1C[C@@H](O)C1 [Compound 132] | 28.4 nM
4 | Nc1ncnc2c1c(Oc1cccc(Cl)c1)nn2[C@H]1C[C@@H](O)C1 [Compound 152] | 27.3 nM
5 | Nc1ncnc2c1c(Oc1cccc(F)c1)nn2[C@H]1C[C@@H](O)C1 [Compound 153, (cis)-3-(4-ammo-3-(3-fluorophenoxy)-1H-pyrazolo[3,4-d]pyrimidin-1-yl)cyclobutan-1-ol] | 33.8 nM
6 | Nc1ncnc2c1c(Cc1c[nH]c3ccc(F)cc13)nn2[C@H]1C[C@H](O)C1 [Compound 154, (trans)-3-(4-amino-3-((5-fluoro-1H-indol-3-yl)methyl)-1H-pyrazolo[3,4-d]pyrimidin-1-yl)cyclobutan-1-ol] | 11.8 nM
7 | Nc1ncnc2c1c(Oc1cccc(F)c1)nn2[C@H]1C[C@H](O)C1 [Compound 155, (trans)-3-(4-amino-3-(3-fluorophenoxy)-1H-pyrazolo[3,4-d]pyrimidin-1-yl)cyclobulan-1-ol] | 38 nM
8 | Nc1ncnc2c1c(Oc1cc(Cl)ccn1)nn2[C@H]1C[C@H](F)C1 [Compound 158, 3-[(4-chloropyridin-2-yl)oxy]-1-[(trans)-3-fluorocyclobutyl]-l H-pyrazolo[3,4-d]pyrimidin-4-amine] | 11.4 nM
9 | Nc1ncnc2c1c(Oc1cccc(C(F)(F)F)c1)nn2[C@H]1C[C@H](F)C1 [Compound 166] | 28.9 nM
10 | (2-((4-amino-1-cyclopropyl-1H-pyrazolo[3,4-d]pyrimidin-3-yl)oxy)pyrimidin-4-yl)methanol [Compound 86] | 29.6 nM
